Assay results reported in patent US6541463B1, “Inhibitors of type 5 and type 3 17β-hydroxysteroid dehydrogenase and methods for their use” (Endorecherche, Inc., priority 1998, dated 2003).

Tests used:
[1] = test system: Shionogi mouse mammary carcinoma cells; test: Androgenic activity: stimulation of proliferation of Shionogi cells; assay type: cell-based
Summary of the method: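 Shionogi mouse mammary carcinoma cells, at 20 000 cells/well in medium with 5% charcoal-stripped FCS, were grown 10–12 days with the inhibitor at 10^−7 M and 10^−6 M in triplicate. Medium was changed every 3–4 days. Proliferation was read by Coulter counting and given as % stimulation.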

estrogen receptor = target: T1, estrogen receptor (Rattus norvegicus, UniProt P06211); test: Estrogen receptor (ER) assay: inhibition of [3H]E2 binding, uterine cytosol
T1 construct: from tissue; host or cells: uterine cytosol of gonadectomized female Sprague-Dawley rats
T1 sequence (P06211 1-600): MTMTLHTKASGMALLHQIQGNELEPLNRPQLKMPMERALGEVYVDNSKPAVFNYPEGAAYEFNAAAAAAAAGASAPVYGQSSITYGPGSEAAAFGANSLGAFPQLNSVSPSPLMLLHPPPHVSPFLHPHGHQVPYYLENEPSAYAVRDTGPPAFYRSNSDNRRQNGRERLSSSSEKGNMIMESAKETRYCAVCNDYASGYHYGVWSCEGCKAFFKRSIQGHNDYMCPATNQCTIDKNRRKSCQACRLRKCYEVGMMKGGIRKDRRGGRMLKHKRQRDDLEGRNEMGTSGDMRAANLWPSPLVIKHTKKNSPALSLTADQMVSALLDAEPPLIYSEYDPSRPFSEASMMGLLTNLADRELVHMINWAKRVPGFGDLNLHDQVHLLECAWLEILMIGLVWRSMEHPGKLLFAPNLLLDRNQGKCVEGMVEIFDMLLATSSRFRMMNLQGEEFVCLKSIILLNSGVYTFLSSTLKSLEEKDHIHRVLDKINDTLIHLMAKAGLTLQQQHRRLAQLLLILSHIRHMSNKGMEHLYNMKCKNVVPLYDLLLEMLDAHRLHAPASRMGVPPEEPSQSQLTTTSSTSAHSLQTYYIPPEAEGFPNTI
Method: Female Sprague-Dawley rats (Crl: CD(SD)Br) weighing 200-300 g were obtained from Charles-River Inc. (St-Constant, Québec, Canada). The rats were gonadectomized under general anesthesia (Isoflurane) and killed by cervical dislocation 24 hours later. The uteri were rapidly removed, dissected free from adhering tissue and frozen on dry-ice. Uteri were kept at −80° C. until assay. All subsequent steps were performed at 0-4° C. Uteri were homogenized in 10 vol (wt/vol) of buffer A (25 mM Tris-HCI, 1.5 mM EDTA disodium salt, 10 mM α-monothioglycerol, 10% glycerol, and 10 mM sodium molybdate, pH 7.4), using a Polytron PT-10 homogenizer (Brinkman Instruments, Canada) at a setting of 5 for three periods of 10 sec, with intervals of 10 sec for cooling. The homogenate was then centrifuged at 105,000×g for 60 min in a Beckman L5-65 ultracentrifuge (Fullerton, Calif.). The protein concentration of the cytosol fraction was measured according to the method of Bradford (Anal. Biochem. 72: 248-254, 1976), using bovine serum albumin as standard.
Estrogen binding was measured using the dextran-coated charcoal adsorption technique as described previously (Asselin et al., Endocrinology, 101: 666-671, 1977; Asselin and Labrie, J. Steroid Biochem., 9: 1079-1082, 1978). Briefly, [^3H]E2 solubilized in ethanol were diluted into buffer A. Aliquots of uterine cytosol preparation (0.1 ml) were incubated with 5 nM [^3H]E2 (˜200,000 cpm, 0.1 ml) in the presence or absence of the indicated concentrations of unlabeled compounds (0.1 ml, prepared in buffer A containing 10% ethanol) for 3 h at room temperature. Unbound steroids were then separated by incubation for 15 min at 0-4° C. with 0.3 ml 0.5% Norit-A and 0.05% Dextran T-70 in buffer B (1.5 mM EDTA disodium salt, 10 mM monothioglycerol, and 10 mM Tris-HCI, pH 7.4) and centrifuged at 3,000×g for 15 min. Aliquots of the supernatant (0.3 ml) were removed for radioactivity measurement.

Row | SMILES | Androgenic Activity Shionogi, Basal E^−6 ([1]; Table 4′, E^−6) [%] | Androgenic Activity Shionogi, Basal E^−7 ([1]; Table 4′, E^−7) | % Inhibition Estrogen Receptor E^−6 (estrogen receptor; Table 4′, E^−6) [%] | % Inhibition Estrogen Receptor E^−8 (estrogen receptor; Table 4′, E^−8) [%] | also measured
1 | COc1c(Br)cc2c(c1Br)CCC1C2CCC2(C)C1CCC21CCC(C)(C)C(=O)O1 (stereo not shown) [EM-1385-CS] | −28 | −11% | 4 | 2 | 
2 | COc1ccc2c(c1)C(=O)CC1C2CC[C@@]2(C)C1CC[C@@]21CCC(C)(C)C(=O)O1 (stereo partly shown) [EM-1394] | −12 | 4% | 8 | 4 | 
3 | CC12C=CC(=O)C=C1C=CC1C2CCC2(C)C(=O)C3(CCCCC3)CC12 (stereo not shown) [CS-204] |  |  |  |  | Androgenic Activity Shionogi, Basal E^−6 ([1]; E^−6): −17; Androgenic Activity Shionogi, Basal E^−7 ([1]; E^−7): 0; % Inhibition Estrogen Receptor E^−6 (estrogen receptor; E^−6): 0%; % Inhibition Estrogen Receptor E^−8 (estrogen receptor; E^−8): 0%
4 | CC(C)C[C@@H]1CC2C3C=CC4=CC(=O)CC[C@]4(C)C3CC[C@]2(C)C1=O (stereo partly shown) [EM-1273-CS] |  |  |  |  | Androgenic Activity Shionogi, Basal E^−6 ([1]; E^−6): −36; Androgenic Activity Shionogi, Basal E^−7 ([1]; E^−7): 12; % Inhibition Estrogen Receptor E^−6 (estrogen receptor; E^−6): 0%; % Inhibition Estrogen Receptor E^−8 (estrogen receptor; E^−8): 0%
5 | CC1CCC2(CCC3C4CCc5ccccc5C4CCC32C)OC1=O (stereo not shown) [EM-1025] | 0 | 5% | 4 | 1 | 
6 | CC1(C)CCC2(CCC3C4CCc5c(cc(Cl)c(O)c5Cl)C4CCC32C)OC1=O (stereo not shown) [EM-1391-CS] | −13 | 0% | 0 | 0 | 
7 | CCOc1ccc2c(c1)CCC1C2CC[C@@]2(C)C1CC[C@@]21CCC(C)(C)C(=O)O1 (stereo partly drawn) [EM-1369, 3-Ethoxy-1,3,5(10)-estratrien-17(R)-spiro-2′-(5′,5′-dimethyl-6′-oxo)-tetrahydropyran] | 0 | 0% | 0 | 2 | 
8 | C[C@]12CCC3c4ccc(O)cc4CCC3C1CC[C@@]21CCCC(=O)O1 (stereo partly drawn) [EM-919, 1,3,5(10)-estratrien-3-ol-17(R)-spiro-2′(6′-oxo)tetrahydropyran] | −17 | +73% |  |  | % Inhibition Estrogen Receptor *E^−5 (estrogen receptor; Table 4′, starred values, E^−5): 90* %; % Inhibition Estrogen Receptor *E^−7 (estrogen receptor; Table 4′, starred values, E^−7): 07* %
9 | CCC[C@]1(F)CC2C3C=CC4=CC(=O)CC[C@]4(C)C3CC[C@]2(C)C1=O (stereo partly shown) [EM-1183] |  |  |  |  | Androgenic Activity Shionogi, Basal E^−6 ([1]; E^−6): −17; Androgenic Activity Shionogi, Basal E^−7 ([1]; E^−7): 0; % Inhibition Estrogen Receptor E^−6 (estrogen receptor; E^−6): 0%; % Inhibition Estrogen Receptor E^−8 (estrogen receptor; E^−8): 0%
10 | COCCOc1ccc2c(c1)C(=O)CC1C2CCC2(C)C1CCC21CCC(C)(C)C(=O)O1 (stereo not shown) [EM-1408-CS] | −12 | 0% | 6 | 0 | 
11 | CC1(C)CCC2(CCC3C4CCc5c(cc(Cl)c(OS(C)(=O)=O)c5Cl)C4CCC32C)OC1=O (stereo not shown) [EM-1392-CS] | −35 | 7% | 0 | 0 | 
12 | CC1(C)CC[C@@]2(CCC3C4CCc5cc(F)ccc5C4CC[C@@]32C)OC1=O (stereo partly shown) [EM-1157-CS] | −12 | 16% | 0 | 0 | 
13 | CCCCN(C)C(=O)[C@@]1(OC(C)=O)CCC2C3C=C(C)C4=CC(=O)CC[C@]4(C)C3CC[C@@]21C (stereo partly shown) [EM-1165] |  |  |  |  | Androgenic Activity Shionogi, Basal ([1]; E^−6): −17; Androgenic Activity Shionogi, Basal ([1]; E^−7): 5; % Inhibition Estrogen Receptor (estrogen receptor; E^−6): 0%; % Inhibition Estrogen Receptor (estrogen receptor; E^−8): 0%
14 | CC(=O)[C@@]1(OC(=O)CCCCF)CCC2C3C=C(C)C4=CC(=O)CC[C@]4(C)C3CC[C@@]21C (stereo partly shown) [EM-1195-CS] |  |  |  |  | Androgenic Activity Shionogi, Basal ([1]; E^−6): −34; Androgenic Activity Shionogi, Basal ([1]; E^−7): −27; % Inhibition Estrogen Receptor (estrogen receptor; E^−6): 0%; % Inhibition Estrogen Receptor (estrogen receptor; E^−8): 0%
15 | CSCCOc1ccc2c(c1)CCC1C2CCC2(C)C1CCC21CCCC(=O)O1 [CS-242, 3-Methylthioethyloxy-1,3,5(10)-estratrien-17(R)-spiro-2′-(6′-oxo) Tetrahydropyran] | −32 | 0% | 0 | 0 | 
16 | CC(=O)O[C@]1(C)C(=O)CCC2C3C=C(C)C4=CC(=O)C=C[C@]4(C)C3CC[C@@]21C (stereo partly shown) [CS-237] |  |  |  |  | Androgenic Activity Shionogi, Basal E^−6 ([1]; E^−6): −29; Androgenic Activity Shionogi, Basal E^−7 ([1]; E^−7): −22; % Inhibition Estrogen Receptor E^−6 (estrogen receptor; E^−6): 0%; % Inhibition Estrogen Receptor E^−8 (estrogen receptor; E^−8): 0%
17 | CN(C)C(=O)c1ccc2c(c1)CCC1C2CCC2(C)C1CCC21CCC(C)(C)C(=O)O1 (stereo not shown) [EM-1403] | 0 | 19% | 0 | 0 | 
18 | COCCOc1cc2c(cc1Cl)C1CCC3(C)C(CCC34CCC(C)(C)C(=O)O4)C1CC2 (stereo not shown) [EM-1371-CS] | 92 | 58% | 1 | 2 | 
19 | COCCOc1cc2c(cc1C(F)(F)F)[C@H]1CC[C@@]3(C)[C@@H](CC[C@@]34CCC(C)(C)C(=O)O4)[C@@H]1CC2 [EM-1438, 3-(2′-Methoxyethoxy)-2-trifluoromethyl-1,3,5(10)-estratrien-17(R)-spiro-2′-(5′,5′-dimethyl-6′-oxo)tetrahydropyran] | −14 | 10% | 0 | 4 | 
20 | COCCOc1cc2c(cc1C(=O)OC)C1CC[C@@]3(C)C(CC[C@@]34CCC(C)(C)C(=O)O4)C1CC2 (stereo partly drawn) [EM-1402-CS, 2-Carbomethoxy-3-(2″-methoxyethyloxy)-1,3,5(10)-estratrien 17(R)-spiro-2′-(5′,5′-dimethyl-6′-oxo)tetrahydropyran] | −9 | 0% | 0 | 1 | 
21 | CC1(C)CCC2(CCC3C4CCc5ccccc5C4CCC32C)OC1=O (stereo not shown) [CS-224] | 0 | 17% | 2 | 0 | 
22 | CN1C(=O)C=C[C@]2(C)C3CC[C@@]4(C)C(CC[C@@]45CCCC(=O)O5)C3CCC12 (stereo partly shown) [EM-1122-CS] |  |  |  |  | Androgenic Activity Shlonogl, Basal E^−6 ([1]; Table 5 column 9, E^−6): −11%; Androgenic Activity Shlonogl, Basal E^−7 ([1]; Table 5 column 9, E^−7): 0%; % Inhibition Estrogen Receptor E^−6 (estrogen receptor; Table 5 column 16, E^−6): 0%; % Inhibition Estrogen Receptor E^−8 (estrogen receptor; Table 5 column 16, E^−8): 2%
23 | CCCC(=O)OC1(C(C)=O)CCC2C3C=C(C)C4=CC(=O)CC(C)C4(C)C3CCC21C (stereo not shown) [CS-245] |  |  |  |  | Androgenic Activity Shionogi, Basal ([1]; E^−6): −34; Androgenic Activity Shionogi, Basal ([1]; E^−7): −28; % Inhibition Estrogen Receptor (estrogen receptor; E^−6): 2%; % Inhibition Estrogen Receptor (estrogen receptor; E^−8): 0%
24 | CC1(C)CCC2(CCC3C4CCc5cc(OCCN6CCCCC6)ccc5C4CCC32C)OC1=O [EM-1390-CS, 3-(N-piperidyl-ethyl)-1,3,5(10)-estratrien-17(R)-spiro-2′-(5′,5′-dimethyl-6′-oxo)-tetrahydropyran] | −43 | −18% | 0 | 0 | 
25 | COc1ccc2c(c1)C(=O)CC1C3CCC4(CCC(C)(C)C(=O)O4)C3(C)CCC21O (stereo not shown) [EM-1386] | −17 | 5% | 0 | 3 | 
